# Measured values as given in patent publication US12016958B2, “Method for delivering an agent to posterior segment of an eye and uses thereof” (NANO TARGETING & THERAPY BIOPHARMA INC., priority 2021, dated 2024).
# Test: Solubility of AXT in water
# Assay type: physicochemical
smiles,measurement,value
"CNC(=O)c1ccccc1Sc1ccc2c(/C=C/c3ccccn3)n[nH]c2c1 [AXT, Axitinib]",Solubility in water,poorly soluble in water
